Results as given in EPA's ToxValDB 9.5 (doi:10.2903/j.efsa.2011.2417).
Values after ≈ are worked out from the molar mass of the structure shown.

How the values were obtained:
Anas platyrhynchos = conditions: short-term; oral; feed; mortality
Apis mellifera = conditions: acute; duration: 48 hours; oral; unspecified; mortality
Canidae = conditions: oral, Dog Other, hematological
Colinus virginianus = conditions: mortality
Daphnia magna = conditions: chronic/long-term; duration: 21 days; reproduction
Rattus norvegicus = conditions: chronic; duration: 2 years; organ weight
Tagia sp. = conditions: acute; mortality
Typhlodromus pyri = conditions: not reported; mortality

In the case of `CCSC(C)CC1CC(=O)C(C(CC)=NOC/C=C/Cl)=C(O)C1` (configuration not stated) [Clethodim], the LC50 (Anas platyrhynchos) is reported as > 851 mg/kg-day, the LD50 (Apis mellifera) is reported as > 43 µg/piece and the NOAEL (Canidae; chronic, duration: 1 years) is reported as 21 mg/kg-day. For the same molecule, the NOAEL (Canidae; subchronic, duration: 90 days) was 21 mg/kg-day, the LD50 (Colinus virginianus; acute, oral) was > 1640 mg/kg and the NOEL (Colinus virginianus; reproduction developmental) was 17 mg/kg-day. For the same molecule, the NOEC (Daphnia magna) was 49 mg/L, the LC50 (Oncorhynchus mykiss; acute, duration: 96 hours, mortality) was 25 µg/mL (≈ 69.5 µM) and the NOEC (Oncorhynchus mykiss; chronic/long-term, duration: 21 days) was 3.9 mg/L. It also gave an NOAEL (Rattus norvegicus) of 16 mg/kg-day, an LC50 (Tagia sp.) of 129 mg/kg and an LEL (Typhlodromus pyri) of 9.6 g/ha.
